Test results: patent US20080194640A1, “Optically Active Tetrahydronaphthalene Derivative” (priority 2005, published 2008)
In brackets after ≈: the same amount, converted by molar mass. Values belong to the compound of their own block, whether it stands above or below them.

Experiments:
[1] = Dissolution test (JP Dissolution Test Method 2, paddle method); type: physicochemical; details: JP second fluid 900 ml, paddle 50 rpm, 37° C., about 10 mg based on free form
Experimental: The compounds obtained in Examples 22, 24 and 25, free base•Form-I crystal, and the racemate of the compound of Example 3 were subjected to a dissolution test, and the dissolution rate was compared. According to this test method, the amount of dissolution relative to the content of each compound in the test solution is expressed in the dissolution rate (%), which was measured over time.
For the method of adding each compound, the compound (about 10 mg based on free form) was precisely weighed and directly added to a vessel. As the test solution, The Japanese Pharmacopoeia second fluid (900 ml) was used, and the test was performed according to The Japanese Pharmacopoeia Dissolution Test Method 2 (Paddle Method) at 50 rpm. The test temperature was 37° C. After the start of the test, solution for dissolution (10 ml) was taken at suitable times, and a test solution (10 ml) heated to 37° C. was soon carefully added for compensation. The collected solution for dissolution was passed through a filter (DISMIC 13HP PTFE (0.45 μm); Toyo Roshi Kaisha). The filtrate in the early stage (5 ml) was removed, the subsequent filtrate (500 μl) was precisely measured, and the dilution solution (water/acetonitrile/trifluoroacetic acid mixture=500:500:1, 500 μl) was accurately added to give a sample solution.
Separately, about 10 mg of the free base•Form-I crystal was precisely weighed, and a dilution solution (water/acetonitrile/trifluoroacetic acid mixture=500:500:1) was added to 50 ml sharp. This solution (2.5 ml) was precisely measured, and a dilution solution (water/acetonitrile/trifluoroacetic acid mixture=500:500:1) was added to 50 ml sharp. This was used as the standard solution of free base•Form-I crystal (10 μg/ml). The sample solution and the standard solution were measured under the HPLC conditions shown below, the peak areas AT and AS of the free base•Form-I crystal in each solution were measured, and the dissolution rate was determined by the following formula.
The nth dissolution rate (%) of free base•Form-I crystal=Wn/W100%×100 • W1: the first dissolution amount (mg) of free base•Form-I crystal
=(900×AT1)×WS/AS/1000 • Wn: the nth (n>1) dissolution amount (mg) of free base•Form-I crystal
={900×ATn+10×(AT1+AT2 . . . +ATn−1)}×WS/AS/1000 • W100%: cast amount (mg) of drug substance • Ws: collected amount (mg) of free base•Form-I crystal standard product • As: peak area of free base•Form-I crystal in standard solution • AT1: peak area of free base•Form-I crystal in sample solution by the first sampling • ATn: peak area of free base•Form-I crystal in sample solution by the nth sampling. • For racemate, the dissolution rate was calculated based on the total value of S form and R form. […]

[2] = Evaluation of biological availability (bioavailability) in rat; type: in vivo; details: for AUC: rat, fasted female SD rats, plasma
Experimental: Free base•Form-I crystal was administered to female SD rats fasted from the day before the experiment and the plasma concentration was measured under the following conditions. As a result, the areas under blood concentration-time curve (AUC) of the drug after intravenous administration and oral administration are as shown in Table 1.
• Dosing formulation: 0.5 mg/ml in aqueous physiological saline. • Dose: 1 mg/2 ml/kg • Administration method: bolus administration from the tail vein Collection of blood samples: About 0.1-0.2 mL of blood was taken from the cervical vein at 3 min, 10 min, 30 min, 1 hr, 2 hr, 4 hr and 6 hr after administration. The blood was centrifuged, and the plasma was separated.
• Dosing formulation: 2 mg/ml suspension adjusted by gradually adding aqueous hydroxypropylmethylcellulose solution to the compound of the present invention thoroughly triturated in an agate mortar. • Dose: 10 mg/5 ml/kg • Administration method: Forcible administration into the stomach • Collection of blood samples: About 0.1-0.2 mL of blood was taken from the cervical vein at 30 min, 1 hr, 2 hr, 4 hr, 6 hr, 8 hr and 24 hr after administration. The blood was centrifuged, and the plasma was separated.
The plasma concentration of the administered compound was measured by LC-MS/MS.
LC conditions • Column: Capcellpak C18 UG-120 (2.0φ mm×50 mm, S-5 μm, Shiseido Co., Ltd.) • Mobile phase: acetonitrile • Flow rate: 0.25 mL/min • Column temperature: room temperature • Auto sampler temperature set to: 25° C. • Gradient setting: • 0 min→0.6 min:25%→25% • 0.6 min→3.6 min:25%→75% • 3.6 min→6 min:75%→75% • 6 min→6.1 min:75%→25% • 6.1 min→9.5 min:25%→25% • MS/MS conditions • Ionization method: ESI • Capillary temperature: 350° C. • Sheath gas pressure: 80 psi • Spray voltage: 4.5 kV.
The plasma concentration of the racemate was measured by a similar method, and the biological availability was calculated and found to be 20%.

C5a receptor = molecular target: T1, C5a receptor (Homo sapiens, UniProt P21730); test: C5a receptor binding assay ([125I]-human C5a, human peripheral blood neutrophil); details: [125I]-C5a 200 pM, 4° C. for 2 hr, read-out: IC50 value, inhibition of [125I]-human C5a binding
T1 construct: neutrophil fraction was separated from human peripheral intravenous blood; endogenous in cells; host or cells: human peripheral blood neutrophils (whole cells)
T1 sequence (P21730 1-350): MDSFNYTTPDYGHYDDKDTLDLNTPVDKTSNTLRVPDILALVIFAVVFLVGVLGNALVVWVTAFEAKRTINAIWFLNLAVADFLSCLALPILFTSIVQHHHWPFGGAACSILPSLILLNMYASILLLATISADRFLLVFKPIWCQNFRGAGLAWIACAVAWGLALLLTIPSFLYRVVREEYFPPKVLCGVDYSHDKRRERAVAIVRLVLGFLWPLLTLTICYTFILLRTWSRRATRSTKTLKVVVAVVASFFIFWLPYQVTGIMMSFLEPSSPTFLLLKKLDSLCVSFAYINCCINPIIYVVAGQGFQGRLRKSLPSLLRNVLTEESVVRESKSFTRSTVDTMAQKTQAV
Experimental: The C5a receptor binding inhibitory action of C5a and the test compound was evaluated by a receptor binding assay comprising of human peripheral blood neutrophil, which expresses the C5a receptor, and [^125I]-human C5a (Amersham Pharmacia Biotech) in a MultiScreen (MILLIPORE). First, neutrophil fraction was separated from human peripheral intravenous blood using lympholyte-poly (Cedarlane), and suspended in a Binding buffer [50 mM HEPES, 1 mM CaCl2, 5 mM MgCl2, 0.5% bovine albumin (BSA, SIGMA), 0.02% NaN3 (pH 7.2)]. The binding assay was started by the addition of 1×10^5 cells/50 μL neutrophil suspension, 25 μL of a test compound solution (obtained by dissolving the test compound in N,N-dimethylformamide to a final concentration of 10 mmol/L and diluting with binding buffer), and 25 μL of [^125I]-C5a solution (final concentration 200 pM), to each well of the MultiScreen. […] After drying the MultiScreen, the radioactivity on the filter was measured using a gamma counter.
The rate of inhibition (% inhibition) of C5a binding by the test compound was calculated by the following formula using the count value obtained without addition of the test compound as Total, the count value obtained with addition of non-labeled C5a as Non, and the count value obtained with addition of the test compound as Test. […]

[3] = test system: collagen-induced arthritis; test: Collagen-induced arthritis in monkey (articular swelling score); type: in vivo, cynomolgus monkey
[4] = Solubility test (Japanese Pharmacopoeia Solution 2); type: physicochemical; details: for solubility after 30 min: Japanese Pharmacopoeia Solution 2, 37° C., shaken 30 min
Experimental: An adequate amount of a sample was taken, and a test solution (The Japanese Pharmacopoeia Solution 2) was added to each to a concentration of about 1 mg/ml. The sample was dispersed by ultrasonication for 2 min, shaken at 37° C. for 30 min, and the solution was filtered through DISMIC13HP ([…]). The filtrate in the early stage (3 ml) was removed, the subsequent filtrate (500 μl) was precisely measured, and the dilution solution (water/acetonitrile/trifluoroacetic acid mixture=500:500:1, 500 μl) was accurately added to give a sample solution. The sample solution and the standard solution prepared in Experimental Example 5 were subjected to the measurement under the similar HPLC conditions as in Experimental Example 5.

[5] = test system: C5a stimulated neutrophil; test: Production of reactive oxygen species in C5a-stimulated neutrophil; type: cell-based; details: human neutrophil, C5a 3 nmol/L, luminol luminescence, 37° C.; read-out: IC50 value, inhibition of production of reactive oxygen species in C5a stimulated neutrophil
Experimental: A neutrophil fraction was separately taken from human peripheral venous blood using Lympholyte-poly (Cedarlane), and suspended in Hank's Balanced Salt Solution (HBSS, GIBCO BRL) containing 1% fetal bovine serum (FBS) and 1 mmol/L luminol (Wako Pure Chemical Industries, Ltd.). Reactive oxygen species was measured using a luminometer (MicroLumat, Berthold) for 96-well plate. […] Then, 25 μL of C5a (final concentration 3 nmol/L) was added and luminescence produced by the reaction of the luminol and the reactive oxygen species was measured with the lapse of time for 15 min. The rate of inhibition (% inhibition) of the production of reactive oxygen species in C5a stimulated neutrophil by the test compound was calculated by the following formula, wherein the peak value of the production of reactive oxygen species derived by C5a without addition of the test compound is Max, the peak value of the production of reactive oxygen species without addition of the test compound and without C5a stimulation is Min, and the peak value of the production of reactive oxygen species derived by C5a with the addition of the test compound is Test. […]

SMILES: CCn1cc(CN(C(=O)[C@H]2CCCc3c(O)cccc32)c2ccc(C(C)C)nc2)cn1.Cl [Example 24, (1S)-(−)-N-[(1-ethyl-1H-pyrazol-4-yl)methyl]-5-hydroxy-N-(6-isopropylpyridin-3-yl)-1,2,3,4-tetrahydronaphthalene-1-carboxamide monohydrochloride]
- dissolution rate (comparison) [1]: faster than that of the free base•Form-I crystal

SMILES: Br.CCn1cc(CN(C(=O)[C@H]2CCCc3c(O)cccc32)c2ccc(C(C)C)nc2)cn1 [Example 25, (1S)-(−)-N-[(1-ethyl-1H-pyrazol-4-yl)methyl]-5-hydroxy-N-(6-isopropylpyridin-3-yl)-1,2,3,4-tetrahydronaphthalene-1-carboxamide monohydrobromide]
- dissolution rate (comparison) [1]: faster than that of the free base•Form-I crystal

- biological availability ([2]; female SD rats, oral 10 mg/kg vs intravenous 1 mg/kg): 62%
- AUC ([2]; intravenous administration 1 mg/kg): 264 ng·h/mL
- AUC ([2]; oral administration 10 mg/kg): 1640 ng·h/mL
- IC50 (C5a receptor): 10 nM
- solubility after 30 min ([4]; listed as free base•Form-I crystal): 66 µg/mL (≈ 158 µM)
- IC50 [5]: 2.8 nM
SMILES: CCn1cc(CN(C(=O)[C@H]2CCCc3c(O)cccc32)c2ccc(C(C)C)nc2)cn1 [Example 3, (1S)-(−)-N-[(1-ethyl-1H-pyrazol-4-yl)methyl]-5-hydroxy-N-(6-isopropylpyridin-3-yl)-1,2,3,4-tetrahydronaphthalene-1-carboxamide]
- articular swelling score, average ([3]; before administration, cynomolgus monkey, 10 per group, control group average 49): 49
- articular swelling score, average ([3]; day 14 of administration, oral, day 36 to day 50, control group average 82): 61
- effect on aggravation of arthritis ([3]; oral administration day 36 to day 50, cynomolgus monkey): significantly suppressed aggravation of arthritis

SMILES: CCn1cc(CN(C(=O)[C@H]2CCCc3c(O)cccc32)c2ccc(C(C)C)nc2)cn1 [Example 22, (1S)-(−)-N-[(1-ethyl-1H-pyrazol-4-yl)methyl]-5-hydroxy-N-(6-isopropylpyridin-3-yl)-1,2,3,4-tetrahydronaphthalene-1-carboxamide]
- dissolution rate (comparison) [1]: faster than that of the free base•Form-I crystal

- solubility relative to free base•Form-I crystal ([4]; JP Solution 2, 37° C., 30 min): 2.5 fold
- solubility relative to the racemate ([4]; JP Solution 2, 37° C., 30 min): about 5 fold
- solubility after 30 min [4]: 165 µg/mL (≈ 394 µM)
SMILES: CCn1cc(CN(C(=O)[C@H]2CCCc3c(O)cccc32)c2ccc(C(C)C)nc2)cn1 [Example 23, (1S)-(−)-N-[(1-ethyl-1H-pyrazol-4-yl)methyl]-5-hydroxy-N-(6-isopropylpyridin-3-yl)-1,2,3,4-tetrahydronaphthalene-1-carboxamide]
